The text below walks through data of US20250186379A1, “METHODS AND AGENTS FOR DECREASING INSULIN RESISTANCE” (Whitehead Institute for Biomedical Research, priority 2021, published 2025).

The assay deals with IR condensates. As to the kind of experiment: tc-PALM of IR cluster/condensate dynamics in HepG2 cells expressing IR-Dendra2. The format is cell-based, human. On the procedure: Widefield Live-cell super-resolution imaging was performed in a photo-activation localization microscopy (PALM) approach using a Nikon Eclipse Ti microscope with a 100× oil immersion objective. The 405 nm and 561 nm laser beams were combined in an external platform with customized power densities to image Dendra2-tagged molecules as previously reported (56). Cells were maintained at 37° C. in a temperature-controlled platform during imaging, and the CO2 level was maintained at 5% by Leibovitz's L-15 Medium with no phenol red (ThermoFisher #21083027). In each imaging cycle, a 2400-frame video stream including a (256 pixel)2 region of interest (ROI) was recorded in 20 Hz acquisition rate with the EM-gain setting as 1000 on an Andor iXon Ultra 897 EMCCD. Each pixel conjugates with a (160 nm)2 area on the sample side. After PALM imaging, the Hoechst-stained nuclei of the same ROI were imaged with stronger 405 nm excitation through DAPI filter.
Detection localization. For each frame of a raw image, Gaussian particles were identified by pixelwise test of hypotheses, whose peak positions were individually fitted at subpixel resolution by maximum-likelihood regression with Gauss-Newton method (91). An additional deflation loop was performed to avoid missing dimmer particles when they were overshadowed by neighboring brighter ones. This multi-particle detection localization procedure has been integrated in a published, open-source MATLAB software called MTT (91).
Spatial clustering. DBSCAN and “manual selection” hybridized approach was applied to group spatially clustered detections via the qSR software (92). Firstly, DBSCAN was performed to generalize a proposal map of spatially clustered detections. Given that IR condensates can be tiny and transient, a “loose” parameter setting was used when performing the DBSCAN (length-scale=120 nm, N_min=4). This parameter combination was determined by comparing the rendered super-resolved reconstructions with the color-coded cluster maps until the clustering results visually make sense for most ROIs. Secondly, individual clusters were manually selected based on the clustering proposal map from last step. Some custom MATLAB code was used to reconstruct the IR distribution of each ROI superposed with the corresponding nuclei image, which was further cross-compared with the corresponding cluster map to determine which region each cluster belongs to (i.e., plasma-membrane, cytoplasm, or nucleus).
Temporal clustering. For each spatial cluster, time-correlated PALM (tc-PALM) analysis was performed along the time axis to extract the truly colocalized, time-correlated multimolecule bursting events (11, 13-14). The lifetime of a burst is simply defined as the timespan from the first to the last detections. More details about the quantitative validations and statistics of tc-PALM analysis can be found in NOTES and FIG. 11.
Widefield, live-cell, super-resolution imaging was performed in a photo-activation localization microscopy (PALM) approach using a Nikon Eclipse Ti microscope with a 100× oil immersion objective. The 405 nm and 561 nm laser beams were combined in an external platform with customized power densities to image Dendra2-tagged molecules as previously reported^24. Cells were cultured on imaging dishes (MatTek, P35G-1.5-20-C) and then imaged while maintaining both the temperature at 37° C. with a temperature-controlled platform and the level of CO2 at 5% with Leibovitz's L-15 Medium with no phenol red (Thermo Fisher, 21083027). During each imaging cycle, a 2400-frame video stream including a (256 pixel)^2 region of interest (ROI) was recorded in 20 Hz acquisition rate with the EM-gain setting as 1000 on an Andor iXon Ultra 897 EMCCD. Each pixel conjugates with a (160 nm)^2 area on the sample side. After PALM imaging, the Hoechst-stained nuclei of the same ROI were imaged using a stronger 405 nm excitation through DAPI filter. […] Following a 5-minute wait, the cells were imaged for 15-20 minutes.

[1] abbreviates: insulin resistant (3 nM insulin) versus sensitive (0.1 nM) cells.
[2] abbreviates: insulin sensitive cells, 3 nM insulin 5 min.

“Also recorded” adds a separate entry of the source.

On to `CN(C)C(=N)N=C(N)N` [metformin, reference compound], for which the “IR condensate lifetimes in the plasma membrane, cytoplasm and nucleus” value (insulin-resistant cells, 12.5 μM metformin, after insulin washout (FIG. 18B)) was “rescued condensate lifetimes in the plasma membrane, cytoplasm and nucleus to times that were similar to those in insulin-sensitive cells”. For the same compound, the “IR condensate lifetime in insulin-sensitive cells” value (insulin-sensitive HepG2 IR-Dendra2 cells, 12.5 μM metformin for 1 day (FIG. 37)) was “did not decrease IR condensate lifetime; also recorded: does not decrease IR condensate lifetime”. For the same compound, the “IR cluster lifetimes in the cytoplasm and nucleus” value (metformin-treated insulin resistant cells (FIG. 5C), no acute insulin stimulation) was “reduced cluster lifetimes in the cytoplasm and nucleus to times that were similar to those in insulin sensitive cells”. The “IR cluster lifetimes in the plasma membrane” value (metformin-treated insulin resistant cells, 12.5 M metformin as printed (FIG. 5C), no acute insulin stimulation) is “little effect”. For the same compound, the “frequency of nuclear IR clusters with 0-25 s lifetimes” value (metformin-treated resistant cells vs resistant cells (FIG. 5C)) is “increased”. In addition, the “frequency of plasma membrane and nuclear IR condensates with 0-13 s lifetimes” value (metformin-treated resistant cells vs resistant cells (FIG. 18B)) is recorded as “increased”. For the same compound, the “IR clusters in the cytoplasm with a lifetime of 0-25 s” value (metformin-treated resistant cells, ~40% in insulin resistant cells (FIG. 5C)) is about 60%. Besides, the “IR condensates in the cytoplasm with a lifetime of 0-13 s” value (metformin-treated resistant cells, ~40% in insulin-resistant cells (FIG. 18B)) was about 60%.
As to TNFα, where the note is “HepG2 IR-Dendra2 cells, pathological TNFα or high nutrients (FIGS. 36A-36B)”, the “IR dynamics in condensates” value was “decreased IR dynamics in condensates”.
For “insulin: insulin (Sigma Aldrich, I9278-5ML) used for acute stimulation and chronic physiological or pathological exposure”, the “average number of IR-Dendra2 detections per cluster” value (entire cells, insulin-stimulated (3 nM, 5 min), 22 (range 4-609) in unstimulated cells) is 27 (range 4-539). Besides, under setting [1], the “increase of percentage of long-lived IR clusters, cytoplasm” value amounted to 1.4 fold and the “increase of percentage of long-lived IR clusters, nucleus” value turned out to be 3.6 fold. Also, under setting [2], the “number of IR clusters in the cytoplasm and nucleus” value was “produced an increase; also recorded: resulted in an increase”; the “number of IR molecules / IR detections in clusters” value is “an increase in the number of IR molecules in these clusters; also recorded: an increase in the number of IR detections in clusters”. Further, the “average number of IR molecules per cluster, nucleus” value (insulin stimulated cells (3 nM, 5 min), 9 (2-46) in unstimulated cells) is reported as 14 (2-283). For the same compound, under “insulin stimulated cells (3 nM, 5 min), 14 (2-264) in unstimulated cells”, the “average number of IR molecules per cluster, cytoplasm” value is listed as 19 (2-295). Moreover, the “percentage of long-lived IR condensates in the plasma membrane, cytoplasm and nucleus” value (insulin-resistant (3 nM insulin) versus sensitive cells (FIG. 18B)) was “also increased”. For the same compound, for the setting “pathologic insulin (3 nM), insulin resistant cells, 5.9 s in sensitive cells (FIG. 4B)”, the “average lifetime of short-lived IR clusters, nucleus” value is 16 s. The “average lifetime of short-lived IR clusters, cytoplasm” value (pathologic insulin (3 nM), insulin resistant cells, 9.8 s in sensitive cells (FIG. 4B)) is given as 13.2 s. Besides, where the note is “pathologic insulin (3 nM), insulin-resistant cells, 6.8 s in sensitive cells (FIG. 18B)”, the “average lifetime of short-lived IR condensates, plasma membrane” value was 11.8 s. For the same compound, for the setting “pathologic insulin (3 nM), insulin-resistant cells, 7.0 s in sensitive cells (FIG. 18B)”, the “average lifetime of short-lived IR condensates, nucleus” value is on record as 12.9 s. Besides, the “average lifetime of short-lived IR condensates, cytoplasm” value (pathologic insulin (3 nM), insulin-resistant cells, 10.0 s in sensitive cells (FIG. 18B)) stood at 15.8 s.
